Assay results as given in publication PMC3740683, “ML212: A small-molecule probe for investigating fluconazole resistance mechanisms in Candida albicans” (Beilstein Journal of Organic Chemistry, 2013).
In brackets after ≈: the same amount, converted by molar mass.

Columns and labels:
C. albicans CaCi-2 = assay: Primary screen and dose-response retest: CaCi-2 with 8 µg/mL fluconazole (Alamar Blue growth); type: cell-based, Candida albicans; details: 37 °C, 48 hours, with test compound and 8 µg/mL (26 µM) fluconazole, average of at least three independent experiments in duplicate, inactive = negligible activity at concentrations below 26 µM; for IC50: Candida albicans, CACI2
Experimental: All of the compounds prepared above were evaluated for their ability to chemosensitize the C. albicans test strains CaCi-2 and CaCi-8 towards fluconazole. […] The DMSO/fluconazole combination served as an internal control.
Protocols for cellular assays
Primary screen and dose-response retest: CaCi-2 with 8 µg/mL fluconazole […]
Clear, flat-bottom, black, 384-well plates (Corning Catalog no. 3712BC; Lot no. […]
DMSO; Fluconazole (Sequoia Research Products Ltd) 2 mg/mL stock solution in PBS; […]
(AG Scientific Catalog no. DAL 1100; Lot no.151016SA); PBS without calcium and magnesium (Cellgro Catalog no. 21-040-CV)
(§1) Synthetic defined growth medium
(§2) RPMI 1640 medium, (powder without sodium bicarbonate; Invitrogen Catalog no. […]
no. 028KO760); Glucose 40% (w/v) in water (Sigma Catalog no. G-5400); MOPS buffer […]
1) Prepare 1× RPMI medium by dissolving 10.4 grams powdered medium in 800 […]
(§3) 2) Add 34.52 g MOPS. While stirring, adjust pH to 7.0 with 10 N NaOH.
(§4) 3) Add 10 mL uridine solution, 50 mL glucose solution, adjust final volume to 1000 […]
Test Strain: C. albicans CaCi-2
1) Inoculate 500 µL of strain from cryopreserved stock into a 250 mL shaker flask containing 30 mL growth medium. Shake at 30 °C overnight.
2) Read OD 600 of 1 mL fungal culture in a cuvette using a standard optical density reader (Eppendorf BioPhotometer Plus), with growth medium as a background […]
3) Dilute to desired volume of fungal inoculums according to the following formula:
(1/OD measured) × (desired final volume of inoculum) × 0.3 = volume of fungal culture (µL) to add to desired volume of growth medium. When added to media in wells, this yields a calculated starting OD of the fungal inoculum of 0.00015.
1) Add fluconazole stock solution to fungal inoculum to achieve a final concentration […]
2) Add Pen/Strep at 0.1 mL per 10 mL media (1% v/v).
3) Use a Thermo Combi nL to dispense 20 µL/well of assay media into all wells.
4) Pin 25 nL test compound from compound plates into assay plates using CyBi- […]
5) Dispense 20 µL/well of culture into the assay media in all wells.
6) Incubate plates in a humidified (90% humidity) Liconic incubator at 37 °C without […]
7) Dilute Alamar Blue Reagent 1:40 in Ca/Mg-free PBS.
8) To all plates, add 5 µL/well of the diluted Alamar to a final dilution factor of 1:200.
9) Incubate the plates for an additional 2 hours.
10) Read the relative fluorescence intensity (RFU) of wells on a standard plate reader as a measure of relative fungal growth. EnVision (Perkin Elmer) plate reader setup: Ex 544 nm, Em 590 nm, bandwidth 12 nm, top read. […]

C. albicans CaCi-8 = assay: Secondary assay 1: CaCi-8 with 8 µg/mL fluconazole (Alamar Blue growth); type: cell-based, Candida albicans; details: for CaCi-8 IC50: 37 °C, 48 hours, with test compound and 8 µg/mL (26 µM) fluconazole, average of at least three independent experiments in duplicate, inactive = negligible activity at concentrations below 26 µM; for IC50: Candida albicans, CACI8, 48 h, read-out: CaCi-8 IC50
Experimental: All of the compounds prepared above were evaluated for their ability to chemosensitize the C. albicans test strains CaCi-2 and CaCi-8 towards fluconazole. […] The DMSO/fluconazole combination served as an internal control. […]
(1/OD measured) × (desired final volume of inoculum) × 0.3 = volume of fungal culture (µL) to add to desired volume of growth medium. When added to media in wells, this yields a calculated starting OD of the fungal inoculum of 0.00015. […]
3) Use a Thermo Combi nL to dispense 20 µL/well of assay media into all wells. […]
EnVision (Perkin Elmer) plate reader setup: Ex 544 nm, Em 590 nm, bandwidth 12 nm, top read.
Secondary assay 1: CaCi-8 with 8 µg/mL fluconazole […]
35808016); geldanamycin (AG Scientific Catalog no. […]
PBS w/o calcium and magnesium (Cellgro Catalog no. 21-040-CV)
as §1, §2
no. 028K0760); glucose 40% (w/v) in water (Sigma Catalog no. G-5400); MOPS buffer […]
1) Prepare 1× RPMI medium by dissolving 10.4 g powdered medium in 800 mL […]
as §3, §4
Test strain: C. albicans CaCi-8
1) Inoculate 500 µL of strain from cryopreserved stock into a 250 mL shaker flask containing 30 mL growth medium. Shake at 30 °C overnight (16 hours).
2) Read OD 600 of 1 mL of fungal culture in a cuvette using a standard optical density reader (Eppendorf BioPhotometer Plus), with growth medium as a […]
3) Dilute to a desired volume of fungal inoculum according to following formula: […]
1) Add fluconazole stock solution to fungal inoculum to achieve 8 µg/mL.
2) Add Pen/Strep to media to 1% concentration.
4) Dispense geldanamycin in positive control wells using Thermo Combi nL for a final concentration of 3 µM.
5) Then, pin 100 nL of test compound from compound plates into assay plates using a CyBi-Well pin tool.
6) Dispense 20 µL/well of culture into the assay media in all wells.
7) Incubate the plates in a humidified (90% humidity) Liconic incubator at 37 °C without agitation for 48 hours.
8) Dilute Alamar Blue 1:40 in Ca/Mg-free PBS.
9) To all plates, add 5 µL/well of the diluted Alamar Blue to plates to a final dilution […]
10) Incubate the plates for 2 hours. […]

CaCi-2 = test system: CaCi-2; parameters: method as in PMID 8161633; details: CaCi-2 clinical isolate; cited from earlier work
CaCi-8 = test system: CaCi-8; parameters: method as in PMID 8161633; details: CaCi-8 clinical isolate; cited from earlier work

For COC(=O)Cn1nc(-c2cccnc2)c2ccccc21 [Compound 26], the “CaCi-2 IC50” value (C. albicans CaCi-2) was “inactive” and the “CaCi-8 IC50” value (C. albicans CaCi-8) was “inactive”.
For COC(=O)Cn1nc(-c2cncnc2)c2ccccc21 [Compound 27], the “CaCi-2 IC50” value (C. albicans CaCi-2) was “inactive” and the IC50 (C. albicans CaCi-8) was 21.1 ± 3.3 µM.
In the case of COC(=O)Cn1nc(-c2cnco2)c2ccccc21 [Compound 28], the “CaCi-2 IC50” value (C. albicans CaCi-2) is reported as “inactive” and the “CaCi-8 IC50” value (C. albicans CaCi-8) is reported as “inactive”.
For COC(=O)Cn1nc(-c2cscn2)c2ccccc21 [Compound 29], the IC50 (C. albicans CaCi-2) was 12.9 ± 1.7 µM and the “CaCi-8 IC50” value (C. albicans CaCi-8) was “inactive”.
COC(=O)Cn1nc(-c2ccc(C)cc2)c2ccccc21 [Compound 30] gave an IC50 (C. albicans CaCi-2) of 4.8 ± 2.5 µM and an IC50 (C. albicans CaCi-8) of 19.5 ± 14.2 µM.
Compound COC(=O)Cn1nc(-c2ccc(OC)cc2)c2ccccc21 [Compound 31] has an IC50 (C. albicans CaCi-2) of 4.2 ± 1.7 µM and an IC50 (C. albicans CaCi-8) of 14.1 ± 6.4 µM.
COC(=O)Cn1nc(-c2ccc(F)cc2)c2ccccc21 [Compound 32] gave an IC50 (C. albicans CaCi-2) of 8.3 ± 2.8 µM and an IC50 (C. albicans CaCi-8) of 12.3 ± 3.9 µM.
In the case of COC(=O)Cn1nc(-c2ccc(C(F)(F)F)cc2)c2ccccc21 [Compound 33], the “CaCi-2 IC50” value (C. albicans CaCi-2) is reported as “inactive”, the IC50 (C. albicans CaCi-2) is reported as > 26 µM and the “CaCi-8 IC50” value (C. albicans CaCi-8) is reported as “inactive”.
In the case of COC(=O)Cn1nc(-c2ccc(C#N)cc2)c2ccccc21 [Compound 34], the “CaCi-2 IC50” value (C. albicans CaCi-2) is reported as “inactive”, the IC50 (C. albicans CaCi-2) is reported as > 26 µM and the IC50 (C. albicans CaCi-8) is reported as 20.5 ± 0.3 µM.
Work on COC(=O)Cn1nc(-c2cccc(C)c2)c2ccccc21 [Compound 35] yielded an IC50 (C. albicans CaCi-2) of 1.1 ± 0.6 µM and an IC50 (C. albicans CaCi-8) of 1.9 ± 0.9 µM.
For COC(=O)Cn1nc(-c2cccc(N(C)C)c2)c2ccccc21 [Compound 37], the IC50 (C. albicans CaCi-2) was 0.8 ± 0.1 µM and the IC50 (C. albicans CaCi-8) was 2 ± 0.2 µM.
COC(=O)Cn1nc(-c2cccc(F)c2)c2ccccc21 [Compound 38] gave an IC50 (C. albicans CaCi-2) of 1.7 ± 0.4 µM and an IC50 (C. albicans CaCi-8) of 4.2 ± 4.1 µM.
With COC(=O)Cn1nc(-c2ccccc2C)c2ccccc21 [Compound 39] the IC50 (C. albicans CaCi-2) was 5.3 ± 0.5 µM and the IC50 (C. albicans CaCi-8) was 7.8 ± 2.6 µM.
Compound COC(=O)Cn1nc(-c2ccccc2OC)c2ccccc21 [Compound 40] has an IC50 (C. albicans CaCi-2) of 9.3 ± 3.6 µM and an IC50 (C. albicans CaCi-8) of 11.4 ± 1.7 µM.
In the case of COC(=O)Cn1nc(-c2cc(OC)cc(OC)c2)c2ccccc21 [Compound 41], the “CaCi-2 IC50” value (C. albicans CaCi-2) is reported as “inactive” and the “CaCi-8 IC50” value (C. albicans CaCi-8) is reported as “inactive”.
For OC(Cn1cncn1)(Cn1cncn1)c1ccc(F)cc1F [fluconazole], the “minimum inhibitory concentration (MIC)” value (CaCi-2) is listed as 2 mg/L (≈ 6.53 µM) and the “minimum inhibitory concentration (MIC)” value (CaCi-8) is listed as 8 mg/L (≈ 26.1 µM).
